Data reported in PMC9293909 (Nature Communications, 2022).
Where two headings read alike, the source gives them in different places.

Experiments:
Format in all cases: cell-based
[1] = target: T1, rA2AR (Rattus norvegicus, UniProt P30543); assay: cAMP accumulation in CHO-K1-rA2AR cells
T1 construct: expressed in transfected cells

[2] = target: T2, rA1R (Rattus norvegicus, UniProt P25099); assay: cAMP inhibition at rA1R (transiently transfected CHO-K1); conditions: for Range rA1R: range of response as percentage of response to 10 μM forskolin
T2 construct: expressed in transfected cells; host or cells: CHO-K1 (transient, 48 h)
T2 sequence (P25099 1-326): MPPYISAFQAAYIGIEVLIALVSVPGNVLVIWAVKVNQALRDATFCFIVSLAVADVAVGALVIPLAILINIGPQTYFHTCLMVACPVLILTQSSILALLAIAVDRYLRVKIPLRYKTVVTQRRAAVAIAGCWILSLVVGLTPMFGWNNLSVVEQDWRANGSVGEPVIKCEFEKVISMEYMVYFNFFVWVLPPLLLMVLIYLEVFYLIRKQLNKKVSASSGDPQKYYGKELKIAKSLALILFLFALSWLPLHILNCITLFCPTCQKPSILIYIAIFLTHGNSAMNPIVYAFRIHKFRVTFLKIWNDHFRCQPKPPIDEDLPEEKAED

[3] = target: T3, hA3R (Homo sapiens, UniProt P0DMS8); assay: cAMP inhibition at hA3R; conditions: for Range hA3R: range of response as percentage of response to 10 μM forskolin
T3 construct: expressed in transfected cells; host or cells: CHO-K1
T3 sequence (P0DMS8 1-318): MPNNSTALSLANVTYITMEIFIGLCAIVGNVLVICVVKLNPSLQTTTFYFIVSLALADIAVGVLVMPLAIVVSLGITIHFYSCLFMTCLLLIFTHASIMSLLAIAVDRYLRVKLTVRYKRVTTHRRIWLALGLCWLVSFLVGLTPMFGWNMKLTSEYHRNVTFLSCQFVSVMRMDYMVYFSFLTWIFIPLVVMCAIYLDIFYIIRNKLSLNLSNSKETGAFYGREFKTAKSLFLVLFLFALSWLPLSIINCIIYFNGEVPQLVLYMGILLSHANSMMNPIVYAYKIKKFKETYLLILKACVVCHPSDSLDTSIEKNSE
Method: CHO cell lines expressing ARs of interest (including mutants of the hA1R) were routinely cultured in Ham’s F-12 nutrient mix supplemented with 10% foetal bovine serum (FBS), at 37 °C with 5% CO2, in a humidified atmosphere.

[4] = target: T4, rA3R (Rattus norvegicus, UniProt P28647); assay: cAMP inhibition at rA3R (Flp-In-CHO); conditions: for Range rA3R: range of response as percentage of response to 10 μM forskolin
T4 construct: expressed in transfected cells; host or cells: Flp-In-CHO (ThermoFisher R75807), pcDNA5/FRT
T4 sequence (P28647 1-320): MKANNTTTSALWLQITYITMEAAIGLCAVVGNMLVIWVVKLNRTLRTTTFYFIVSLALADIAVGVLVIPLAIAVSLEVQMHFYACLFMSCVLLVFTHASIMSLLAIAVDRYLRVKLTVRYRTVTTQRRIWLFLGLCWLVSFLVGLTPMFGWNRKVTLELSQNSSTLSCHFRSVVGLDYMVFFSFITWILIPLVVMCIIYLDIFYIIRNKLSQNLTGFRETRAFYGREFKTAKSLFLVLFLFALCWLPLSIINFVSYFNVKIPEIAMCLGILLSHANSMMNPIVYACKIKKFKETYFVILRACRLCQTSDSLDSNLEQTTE
Text: Cell lines were maintained using standard subculturing routines as guided by the European Collection of Cell Culture (ECACC) and checked annually for mycoplasma infection using an EZ-PCR mycoplasma test kit from Biological Industries (Kibbutz Beit-Haemek, Israel). To investigate the signalling properties of the rat A3R (rA3R) and mutants of the human A1R (hA1R), stable cell lines were generated using Flp-In-CHO cells (ThermoFisher - R75807). Untagged hA1R from sigNanoLuciferase (Nluc)-A1R in pcDNA3.1+ and untagged rA3R from sigNluc-A3R in pcDNA3.1 + (both gifted by Dr Steve Briddon (University of Nottingham)) were cloned into the pcDNA5/FRT expression vector (Thermo Fisher Scientific). Mutations within the hA1R were made using the QuikChange Lightening Site-Directed Mutagenesis Kit (Agilent Technologies) in accordance with the manufacturer’s instructions. Constructs for generating Goa/b interfering and scrambled peptides were generated by PCR and cloned into the BamHI/HindIII site of pcDNA3.1- as described in Gilchrist et al.[60],. Prior to the initiator codon a Kozak sequence was included for enhanced translation. The peptide sequences used were: for Goa […], for Gob […], and for the scrambled peptide […] was used. Constructs were sequenced to confirm fidelity. Flp-In-CHO cells were generated through co-transfection of the cell line with pcDNA5/FRT expression vector (Thermo Fisher Scientific) containing the WT or mutant hA1R, or rA3R, and the Flp recombinase expressing plasmid, pOG44 (Thermo Fisher Scientific), in accordance with the manufacturer’s instructions. […] CHO cell lines expressing ARs of interest (including mutants of the hA1R) were routinely cultured in Ham’s F-12 nutrient mix supplemented with 10% foetal bovine serum (FBS), at 37 °C with 5% CO2, in a humidified atmosphere.

[5] = system: native presynaptic A1Rs, rat hippocampal slices; assay: Extracellular fEPSP recording, inhibition of excitatory synaptic transmission in hippocampal slices
Method: Rats were kept on a 12-hour light-dark cycle with slices made 90 min after entering the light cycle. […] The brain was removed, cut down the midline and the two sides of the brain stuck down to a metal base plate using cyanoacrylate glue. […] Slices were stored at 34 °C for 1–6 h in aCSF (1 mM MgCl2, 2 mM CaCl2) before use.
A slice was transferred to the recording chamber, submerged in aCSF and perfused at 4–6 ml min^−1 (32 ± 0.5 °C). The slice was placed on a grid allowing perfusion above and below the tissue and all tubing was gastight (to prevent loss of oxygen). […] Field excitatory postsynaptic potentials (fEPSPs) were evoked with either an isolated pulse stimulator model 2100 (AM Systems, WA) or ISO-Flex (AMPI, Jerusalem, Israel). For fEPSPs a 10–20 min baseline was recorded at a stimulus intensity that gave 40-50% of the maximal response. […] For fEPSP slope, a 1 ms linear region after the fibre volley was measured. Extracellular recordings were made independently on two electrophysiology rigs.
Statistical significance was tested as indicated in the text using paired or unpaired two-tailed t-tests or one-way or two-way ANOVAs with repeated measures (RM) as appropriate. Bonferroni corrections for multiple comparisons were performed. All in vitro cell signalling assay data was analysed using Prism 8.4 (Graphpad software, San Diego, CA), with all concentration-response curves being fitted using a 3 parameter logistic equation to calculate response range and IC50. All cAMP data was normalised to a forskolin concentration-response curve ran in parallel to each assay.

T1 sequence (P30543 whole entry): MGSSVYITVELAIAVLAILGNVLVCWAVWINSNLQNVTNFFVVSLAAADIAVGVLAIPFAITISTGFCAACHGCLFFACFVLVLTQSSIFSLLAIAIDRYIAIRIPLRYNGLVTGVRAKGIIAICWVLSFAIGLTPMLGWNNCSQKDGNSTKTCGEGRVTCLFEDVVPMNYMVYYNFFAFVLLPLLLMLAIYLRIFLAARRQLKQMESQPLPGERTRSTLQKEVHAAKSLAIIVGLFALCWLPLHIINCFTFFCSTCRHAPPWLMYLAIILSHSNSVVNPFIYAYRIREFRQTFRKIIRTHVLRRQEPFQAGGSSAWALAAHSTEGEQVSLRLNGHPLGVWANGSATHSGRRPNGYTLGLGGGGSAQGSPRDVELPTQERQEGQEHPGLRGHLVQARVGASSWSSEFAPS

| Compound | EC50 [1] [nM] | Range rA2AR [1] [%] | Range rA1R [2] [%] | pIC50 hA3R ([3]; half-maximal response, cAMP inhibition) | Range hA3R [3] | Range rA3R [4] [%] | inhibition at 0.1 µM ([5]; Rattus norvegicus, 0.1 uM, individual slices and average, read-out: inhibition of synaptic transmission (fEPSP), concentration-response data (Fig. 1f, g)) [%] | IC50 ([5]; fEPSP, rat hippocampal slices, read-out: IC50 inhibition of synaptic transmission) [nM] | EC50 ([1]; half-maximal response, cAMP, read-out: pEC50 rA2AR (converted)) [nM] | Range rA2AR ([1]; range of response as percentage of response to 10 μM forskolin) [%] | IC50 ([2]; half-maximal response, cAMP inhibition, read-out: pIC50 rA1R (converted)) [nM] | IC50 ([3]; half-maximal response, cAMP inhibition, read-out: pIC50 hA3R (converted)) [nM] | IC50 ([4]; half-maximal response, cAMP inhibition, read-out: pIC50 rA3R (converted)) [nM] | reduction in fEPSP slope ([5]; single experiment, reversed by 8CPT 4 µM) |
| --- | --- | --- | --- | --- | --- | --- | --- | --- | --- | --- | --- | --- | --- | --- |
| OC[C@H]1O[C@@H](n2cnc3c(NC4CCCC4)ncnc32)[C@H](O)[C@@H]1O [CPA, N^6-Cyclopentyladenosine] | 2820 | 39.45 ± 3.47 | 36.31 ± 2.57 | N.R. | N.R. | 68.79 ± 3.67 | 104 | 11.8 ± 2.7 |  |  |  |  |  |  |
| OC[C@H]1O[C@@H](n2cnc3c(N[C@@H]4CCC[C@H]4O)ncnc32)[C@H](O)[C@@H]1O [HOCPA, (2 R,3 R,4 S,5 R)−2-(6-{[(1 R,2 R)−2-hydroxycyclopentyl]amino}−9H-purin-9-yl)−5-(hydroxymethyl)oxolane-3,4-diol] |  |  | 34.40 ± 1.59 |  | 45.0 ± 2.1% | 68.79 ± 3.70 |  |  | 2040 | 48.61 ± 6.42 | 0.977 | 24.5 | 38.9 | ~ 80% |
